Measured values as given in US20160346255A1, “METHODS, AGENTS AND COMPOSITIONS FOR TREATMENT OF INFLAMMATORY CONDITIONS” (Betanien Hospital, priority 2014, published 2016).
Non-standard residues stand in square brackets, D forms with d. Residues, ends and D or L forms follow the SMILES beside them. *: point of attachment. dPhe(4-NHCONH2) = NC(=O)Nc1ccc(C[C@@H](N)C(=O)O)cc1; Dihydroorotyl(S) = O=C1C[C@@H](C(=O)*)NC(=O)N1; dPhe(4-Cl) = N[C@H](Cc1ccc(Cl)cc1)C(=O)O; Phe(4-NH2) = Nc1ccc(C[C@H](N)C(=O)O)cc1; d2Nal = N[C@H](Cc1ccc2ccccc2c1)C(=O)O; Lys(iPr) = CC(C)NCCCC[C@H](N)C(=O)O; d3Pal = N[C@H](Cc1cccnc1)C(=O)O

What was measured:
Type in all cases: in vivo, human
[1] = test system: Patient with Inflammatory Bowel Disease; test: Inflammatory bowel disease (colitis) patient treated with degarelix
Protocol: • person, diagnosed with colitis • Inflammatory bowel disease, colitis verified on colonic biopsy sample. Patients with inflammatory colitis usually have a higher incidence of autoimmune diseases. This patient also had ankylosing spondylitis. • September 2014 received first dose of degarelix 240 mg s.c. • Received degarelix 80 mg s.c. approximately every two weeks thereafter. • The inflammatory bowel diseases (IBDs), Crohn's disease and ulcerative colitis, are chronic relapsing, remitting disorders. The assessment of disease activity presents challenges to clinicians. Fecal biomarkers, such as fecal calprotectin, are a non-invasive method which can be used to aid managing clinicians. Calprotectin is released extracellularly in times of cell stress or damage and can be detected within feces and thus be used as a sensitive marker of intestinal inflammation. […] Fecal calprotectin levels are elevated in patients with both Crohn's disease and ulcerative colitis (1-2). There have been several studies looking at the use of fecal calprotectin to predict or monitor response to treatment. • In a study looking at 11 patients with relapsing IBD, fecal calprotectin was analysed at inclusion and after 8 weeks of treatment. Treatment was individualized medical therapy. A normalized fecal calprotectin concentration at 8 weeks predicted a complete response in 100% of patients (3), corresponding to endoscopic mucosal healing (4). It has been shown that in patients with steroid induced clinical remission fecal calprotectin levels can remain elevated (5-6). […] A level of <50 mg/kg is considered normal or remission for IBD. • There is no gold standard index in the measurement of colitis disease activity in clinical trials. Due to the invasive nature of endoscopies, the Mayo non-invasive colitis assessment of response score can be used to assess treatment effect of IBD in clinical trials (9-11). […] Both the partial Mayo and total Mayo score are used to assess disease activity in clinical trials (13). The partial Mayo score also had good discriminatory value between subjects in remission and those with active disease (14). A clinical response has been defined as a 3 point or greater change in the partial Mayo score (15).

[2] = test system: Patient with Spondyloarthritis; test: Spondyloarthritis patient treated with degarelix; conditions: for BASDAI: baseline 3.8
Protocol: • person, diagnosed with spondyloarthritis • Fulfilled the ASAS criteria for axial radiographic spondyloarthritis. • October 2014 received first dose of degarelix, 240 mg s.c. • Received degarelix 80 mg s.c. every two weeks thereafter. Disease activity in ankylosing spondylitis/spondyloarthritis is measured by the BASDAI (Bath Ankylosing Spondylitis Disease Activity Index (1)), has been extensively validated in clinical trials (2-3), and is one of the most commonly used outcome measures in clinical trials. This is a composite index that evaluates fatigue, axial and peripheral pain, stiffness and enthesopathy. Their BASDAI was at 3.8 at baseline. In October 2014 they received their first dose of degarelix 240 mg s.c. By 2 weeks, their BASDAI had reduced to 2.9, and by 8 weeks it had reduced to 1.3, remission. At 4 months, their BASDAI continues to be low at 1.5. • Response to therapy in clinical practice is defined as improvement of 2 units or 50% on a 0-10 scale of the BASDAI, and expert opinion that the treatment should be continued. Their reduction by 4 months was 2.3. We shall continue treatment.

[3] = test system: Patients with Rheumatoid Arthritis; test: Rheumatoid arthritis patients treated with degarelix: laboratory variables; parameters: LH: unit not given beside the values
Excerpt: [table] […] Examples of Patients with Continued RA Improvement Over Several Weeks Despite Stably Low Levels of LH

With `CC(=O)N[C@H](Cc1ccc2ccccc2c1)C(=O)N[C@H](Cc1ccc(Cl)cc1)C(=O)N[C@H](Cc1cccnc1)C(=O)N[C@@H](CO)C(=O)N[C@@H](Cc1ccc(NC(=O)[C@@H]2CC(=O)NC(=O)N2)cc1)C(=O)N[C@H](Cc1ccc(NC(N)=O)cc1)C(=O)N[C@@H](CC(C)C)C(=O)N[C@@H](CCCCNC(C)C)C(=O)N1CCC[C@H]1C(=O)N[C@H](C)C(N)=O` [degarelix] (Ac-[d2Nal][dPhe(4-Cl)][d3Pal]S[Phe(4-NH2)](Dihydroorotyl(S))[dPhe(4-NHCONH2)]L[Lys(iPr)]P[dA]-NH2) the “Fecal calprotectin (<50 normal)” value ([1]; 2 Oct. 2014, normal) was 48, normal mg/kg, the “Fecal calprotectin (<50 normal)” value ([1]; 10 Jan. 2015, normal) was 32, normal mg/kg and the “Fecal calprotectin (<50 normal)” value ([1]; 24 Sep. 2014 (started 10.09.14), high) was 79, high mg/kg. The “Partial Mayo score” value ([1]; at 12 weeks, baseline 3) was 0, the BASDAI ([2]; at 4 months) was 1.5 and the BASDAI ([2]; by 2 weeks) was 2.9. For the same molecule, the BASDAI reduction ([2]; by 4 months) was 2.3, the BASDAI ([2]; by 8 weeks, remission) was 1.3 and the “HbA1c (4.3-6.1), final” value ([3]; Patient 1, by 24 wks, baseline 6.4, * normalized) was 6.4, 6.1*. For the same molecule, the “Rheumatoid factor (<14), final” value ([3]; Patient 1, by 24 wks, baseline 7) was 7, 9, the “LH, final” value ([3]; Patient 1, by 24 wks, baseline 22) was 22, <0 and the “FSH, final” value ([3]; Patient 1, by 24 wks, baseline 38) was 38, 1. The “ESR (erythrocyte sedimentation rate), final” value (“ESR … final” for short) ([3]; Patient 1, by 24 wks, baseline 46, * normalized) was 46, 24 *, the “CRP (<5), final” value ([3]; Patient 1, by 24 wks, baseline 63) was 63, 16 and the “Blood Pressure, final” value ([3]; Patient 1, by 24 wks, baseline 151/90, * normalized) was 151/90, 120/71 *. The “CCP antibody (<10), final” value ([3]; Patient 1, by 24 wks, baseline NEG) was “NEG, NEG”, the “HbA1c (4.3-6.1), final” value ([3]; Patient 2, by 15 wks, baseline 5.3) was 5.3, 5.3 and the “LH, final” value ([3]; Patient 2, by 15 wks, baseline 36) was 36, <0.3. The “CRP (<5), final” value ([3]; Patient 2, by 15 wks, baseline 44) was 44, 23, the “Rheumatoid factor (<14), final” value ([3]; Patient 2, by 15 wks, baseline 51) was 51, 38 and the “ESR … final” value ([3]; Patient 2, by 15 wks, baseline 51, * normalized) was 51, 16*. The “FSH, final” value ([3]; Patient 2, by 15 wks, baseline 72) was 72, 0.4, the “CCP antibody (<10), final” value ([3]; Patient 2, by 15 wks, baseline 101) was 101, 70 and the “Blood Pressure, final” value ([3]; Patient 2, by 15 wks, baseline 118/82) was 118/82, 126/80. It also gave an LH ([3]; Patient 3, 4 wks, baseline 2) of less than 0.3, an ESR ([3]; Patient 3, 4 wks, baseline 46) of 41 and an LH ([3]; Patient 3, 8 wks, baseline 2) of less than 0.3. It also gave an ESR ([3]; Patient 3, 8 wks, baseline 46) of 36, an LH ([3]; Patient 3, 12 wks, baseline 2) of less than 0.3 and an ESR ([3]; Patient 3, 12 wks, baseline 46) of 20. For the same molecule, the “LH, final” value ([3]; Patient 3, by 12 wks, baseline 2) was 2, >0.3, the “HbA1c (4.3-6.1), final” value ([3]; Patient 3, by 12 wks, baseline 5.1) was 5.1, 5.4 and the “FSH, final” value ([3]; Patient 3, by 12 wks, baseline 6) was 6, 1. The “CRP (<5), final” value ([3]; Patient 3, by 12 wks, baseline 33) was 33, 19, the “ESR … final” value ([3]; Patient 3, by 12 wks, baseline 46, * normalized) was 46, 20 * and the “CCP antibody (<10), final” value ([3]; Patient 3, by 12 wks, baseline 102) was 102, 101. For the same molecule, the “Blood Pressure, final” value ([3]; Patient 3, by 12 wks, baseline 110/68) was 110/68; 110/66, the “Rheumatoid factor (<14), final” value ([3]; Patient 3, by 12 wks, baseline 178) was 178, 163 and the LH ([3]; Patient 4, 3½ wks, baseline 8) was less than 0.3. For the same molecule, the ESR ([3]; Patient 4, 3½ wks, baseline 78) was 68, the LH ([3]; Patient 4, 9 wks, baseline 8) was less than 0.3 and the ESR ([3]; Patient 4, 9 wks, baseline 78) was 36. The “HbA1c (4.3-6.1), final” value ([3]; Patient 4, by 9 wks, baseline 6.9) was 6.9, 6.4, the “LH, final” value ([3]; Patient 4, by 9 wks, baseline 8) was 8, <0.3 and the “FSH, final” value ([3]; Patient 4, by 9 wks, baseline 15, * normalized) was 15, 0.7*. For the same molecule, the “ESR … final” value ([3]; Patient 4, by 9 wks, baseline 78) was 78, 36, the “Blood Pressure, final” value ([3]; Patient 4, by 9 wks, baseline 130/80) was 130/80; 120/78 and the “CRP (<5), final” value ([3]; Patient 4, by 9 wks, baseline 142) was 142, 56. For the same molecule, the “Rheumatoid factor (<14), final” value ([3]; Patient 4, by 9 wks, baseline >200, above limit) was >200, >200, the “CCP antibody (<10), final” value ([3]; Patient 4, by 9 wks, baseline >340, above limit) was >340, >340 and the “HbA1c (4.3-6.1), final” value ([3]; Patient 5, by 7 wks, baseline 5.1) was 5.1, 5.5. For the same molecule, the “ESR … final” value ([3]; Patient 5, by 7 wks, baseline 28) was 28, 8, the “LH, final” value ([3]; Patient 5, by 7 wks, baseline 44) was 44, <0.3 and the “FSH, final” value ([3]; Patient 5, by 7 wks, baseline 64) was 64, <0.1. The “Blood Pressure, final” value ([3]; Patient 5, by 7 wks, baseline 134/79) was 134/79; 124/80, the “Rheumatoid factor (<14), final” value ([3]; Patient 5, by 7 wks, baseline 167) was 167, >200 and the “CCP antibody (<10), final” value ([3]; Patient 5, by 7 wks, baseline 257) was 257, 235. For the same molecule, the “CRP (<5), final” value ([3]; Patient 5, by 7 wks, baseline <5) was <5, 6, the “HbA1c (4.3-6.1), final” value ([3]; Patient 6, by 3 ½ wks, baseline 5.5) was 5.5, 5.4 and the “Rheumatoid factor (<14), final” value ([3]; Patient 6, by 3 ½ wks, baseline 8) was 8, 8. The “CRP (<5), final” value ([3]; Patient 6, by 3 ½ wks, baseline 22, * normalized) was 22, <5*, the “LH, final” value ([3]; Patient 6, by 3 ½ wks, baseline 30) was 30, <0.3 and the “ESR … final” value ([3]; Patient 6, by 3 ½ wks, baseline 37, * normalized) was 37, 24*. For the same molecule, the “FSH, final” value ([3]; Patient 6, by 3 ½ wks, baseline 79) was 79, 0.6, the “Blood Pressure, final” value ([3]; Patient 6, by 3 ½ wks, baseline 90/60) was 90/60; 100/64 and the “CCP antibody (<10), final” value ([3]; Patient 6, by 3 ½ wks, baseline NEG) was “NEG, NEG”.
